We go through 10 molecules from US11780830B2, “Triazolone derivatives or salts thereof and pharmaceutical compositions comprising the same” (YUHAN CORPORATION, priority 2018, dated 2023).

Molecules are shown by their SMILES. Counter-ions that a name gives are not always drawn.

Common to all, as to format: biochemical
Assay [1] addresses T1, recombinant human VAP-1 (Homo sapiens, UniProt Q16853).
T1 construct: purchased R&D systems
T1 sequence (Q16853 1-763): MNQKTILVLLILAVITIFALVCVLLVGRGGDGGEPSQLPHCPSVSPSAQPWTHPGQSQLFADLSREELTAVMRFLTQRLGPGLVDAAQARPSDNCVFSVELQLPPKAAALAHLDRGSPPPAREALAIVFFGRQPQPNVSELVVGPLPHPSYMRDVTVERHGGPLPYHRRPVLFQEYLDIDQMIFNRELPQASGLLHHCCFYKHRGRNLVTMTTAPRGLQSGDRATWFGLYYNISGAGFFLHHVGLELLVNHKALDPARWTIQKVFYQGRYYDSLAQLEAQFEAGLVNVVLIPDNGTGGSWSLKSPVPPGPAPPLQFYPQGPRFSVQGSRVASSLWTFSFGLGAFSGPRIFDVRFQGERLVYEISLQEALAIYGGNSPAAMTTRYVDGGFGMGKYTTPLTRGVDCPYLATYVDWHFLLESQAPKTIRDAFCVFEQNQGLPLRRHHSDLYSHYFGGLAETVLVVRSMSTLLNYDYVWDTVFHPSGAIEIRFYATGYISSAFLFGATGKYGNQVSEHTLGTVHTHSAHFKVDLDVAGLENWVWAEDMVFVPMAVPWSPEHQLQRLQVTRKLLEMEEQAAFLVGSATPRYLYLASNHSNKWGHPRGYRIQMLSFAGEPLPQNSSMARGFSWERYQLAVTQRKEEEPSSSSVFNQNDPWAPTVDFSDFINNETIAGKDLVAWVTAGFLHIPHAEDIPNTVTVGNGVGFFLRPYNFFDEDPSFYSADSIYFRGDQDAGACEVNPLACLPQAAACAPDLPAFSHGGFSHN
The experiment in a line: Activity on recombinant human VAP-1, HRP-coupled Amplex Red hydrogen peroxide assay. The note with it: substrate 1 mM benzylamine; compound incubated with enzyme at 37° C. for 30 minutes; pH 7.4; read-out: Inhibitory Activity (IC50, nM) human VAP-1. In outline:
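Fluorescence of resorufin formed from H2O2 (ex 544 nm, em 590 nm) was tracked for 1-2 h after adding 1 mM benzylamine, 200 uM Amplex Red and 1 U/mL HRP to enzyme pretreated with compound for 30 min at 37 °C. IC50 values derive from four-variable logistic fits.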

Assay [2] deals with T2, recombinant human MAO-B (monoamine oxidase-B) (Homo sapiens, UniProt P27338).
T2 construct: purchased Sigma-Aldrich
T2 sequence (P27338 1-520): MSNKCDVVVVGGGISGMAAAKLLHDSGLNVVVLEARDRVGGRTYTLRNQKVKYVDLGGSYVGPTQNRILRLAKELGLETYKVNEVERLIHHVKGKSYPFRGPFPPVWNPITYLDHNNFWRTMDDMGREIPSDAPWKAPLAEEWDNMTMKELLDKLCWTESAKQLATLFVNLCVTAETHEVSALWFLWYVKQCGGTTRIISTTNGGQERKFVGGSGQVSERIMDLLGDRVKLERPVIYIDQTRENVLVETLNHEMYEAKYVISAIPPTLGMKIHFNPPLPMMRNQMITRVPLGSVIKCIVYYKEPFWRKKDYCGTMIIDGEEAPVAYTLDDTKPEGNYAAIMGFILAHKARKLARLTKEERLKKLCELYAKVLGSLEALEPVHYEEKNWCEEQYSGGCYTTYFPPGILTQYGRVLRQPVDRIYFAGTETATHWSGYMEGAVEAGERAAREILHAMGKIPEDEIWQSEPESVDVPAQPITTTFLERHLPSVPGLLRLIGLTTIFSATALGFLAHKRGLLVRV
The experiment in a line: Activity on recombinant human MAO-B, method similar to the VAP-1 assay. The note with it: substrate 1 mM benzylamine; read-out: Inhibitory Activity (IC50, nM) MAO-B. In outline:
(§1)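 Fluorescence (544/590 nm) of resorufin formed from Amplex Red by HRP and enzyme-generated H2O2 was followed over 1-2 h. Substrates were 0.5 mM tyramine for MAO-A and 1 mM benzylamine for MAO-B; compounds were preincubated with enzyme for 30 min at 37° C. IC50 came from four-parameter logistic fitting of signal-rate inhibition.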

Assay [3] deals with T3, recombinant human DAO (diamine oxidase) (Homo sapiens, UniProt P19801).
T3 construct: purchased R&D systems
T3 sequence (P19801 20-751): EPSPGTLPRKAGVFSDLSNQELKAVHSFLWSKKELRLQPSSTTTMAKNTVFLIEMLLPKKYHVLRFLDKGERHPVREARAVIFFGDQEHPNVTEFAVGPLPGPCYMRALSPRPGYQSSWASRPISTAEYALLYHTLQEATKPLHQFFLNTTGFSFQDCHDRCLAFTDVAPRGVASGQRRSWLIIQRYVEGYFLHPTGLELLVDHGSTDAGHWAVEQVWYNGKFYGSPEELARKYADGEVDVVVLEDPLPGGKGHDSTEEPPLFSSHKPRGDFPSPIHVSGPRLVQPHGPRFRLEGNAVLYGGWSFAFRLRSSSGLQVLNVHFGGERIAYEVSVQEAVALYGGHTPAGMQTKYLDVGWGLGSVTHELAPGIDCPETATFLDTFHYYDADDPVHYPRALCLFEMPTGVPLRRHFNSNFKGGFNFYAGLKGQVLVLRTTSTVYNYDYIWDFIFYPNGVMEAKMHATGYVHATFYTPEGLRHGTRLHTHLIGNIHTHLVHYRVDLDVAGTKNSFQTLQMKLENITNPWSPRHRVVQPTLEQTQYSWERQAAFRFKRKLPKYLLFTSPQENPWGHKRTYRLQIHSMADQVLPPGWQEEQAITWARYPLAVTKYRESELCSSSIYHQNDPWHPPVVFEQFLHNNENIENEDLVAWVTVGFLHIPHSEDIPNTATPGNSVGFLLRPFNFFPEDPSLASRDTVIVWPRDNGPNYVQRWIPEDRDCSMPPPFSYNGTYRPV
The experiment in a line: Activity on recombinant human DAO, method similar to the VAP-1 assay. The note with it: substrate 1 mM putrescine; read-out: Inhibitory Activity (IC50, nM) DAO. In outline: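 Inhibition of recombinant human diamine oxidase (DAO, R&D systems) was assessed by the same approach as the VAP-1 assay, using 1 mM putrescine as substrate. Hydrogen peroxide formed was detected through an HRP-coupled Amplex Red reaction yielding fluorescent resorufin, read at 544 nm excitation and 590 nm emission. IC50 values came from four-parameter logistic fitting in GraphPad Prism.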

Assay [4] concerns the target T4, recombinant human MAO-A (monoamine oxidase-A) (Homo sapiens, UniProt P21397).
T4 construct: purchased Sigma-Aldrich
T4 sequence (P21397 1-527): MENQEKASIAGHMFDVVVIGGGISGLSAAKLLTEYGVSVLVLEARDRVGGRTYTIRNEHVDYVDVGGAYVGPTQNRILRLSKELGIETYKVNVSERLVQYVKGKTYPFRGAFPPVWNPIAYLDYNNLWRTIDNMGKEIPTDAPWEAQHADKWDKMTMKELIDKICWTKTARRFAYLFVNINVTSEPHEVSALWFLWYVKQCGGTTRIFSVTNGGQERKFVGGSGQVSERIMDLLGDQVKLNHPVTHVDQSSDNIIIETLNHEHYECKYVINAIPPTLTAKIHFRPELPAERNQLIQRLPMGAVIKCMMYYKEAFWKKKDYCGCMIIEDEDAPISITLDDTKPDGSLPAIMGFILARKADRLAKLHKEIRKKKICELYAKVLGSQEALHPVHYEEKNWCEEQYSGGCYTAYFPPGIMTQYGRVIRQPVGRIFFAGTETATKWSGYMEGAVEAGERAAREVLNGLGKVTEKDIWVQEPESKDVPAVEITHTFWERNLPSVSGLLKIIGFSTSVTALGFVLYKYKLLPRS
The experiment in a line: Activity on recombinant human MAO-A, method similar to the VAP-1 assay. Conditions: substrate 0.5 mM tyramine; read-out: Inhibitory Activity (IC50, nM) MAO-A. In outline: as §1

Regarding `Cn1cc(-c2ccc(Cn3cnn(C/C(=C/F)CN)c3=O)s2)cn1` [Example 142, 2-[(2E)-2-(aminomethyl)-3-fluoroprop-2-en-1-yl]-4-{[5-(1-methyl-1H-pyrazol-4-yl)thiophen-2-yl]methyl}-2,4-dihydro-3H-1,2,4-triazol-3-one], the IC50 in assay [1] was 2.9 nM; in assay [2], 1000 nM; in assay [3], 11000 nM; in assay [4], over 100000 nM.

On to `Cc1cscc1-c1ccc(Cn2cnn(C/C(=C/F)CN)c2=O)s1` [Example 165, 2-[(2E)-2-(aminomethyl)-3-fluoroprop-2-en-1-yl]-4-[(4′-methyl-2,3′-bithiophen-5-yl)methyl]-2,4-dihydro-3H-1,2,4-triazol-3-one], for which the IC50 in assay [1] is 7.5 nM; in assay [2] it was 2.8 nM; in assay [3], 5300 nM; in assay [4], over 100000 nM.

For `CCn1cc(-c2ccc(Cn3cnn(C/C(=C/F)CN)c3=O)s2)cn1` [Example 153, 2-[(2E)-2-(aminomethyl)-3-fluoroprop-2-en-1-yl]-4-{[5-(1-ethyl-1H-pyrazol-4-yl)thiophen-2-yl]methyl}-2,4-dihydro-3H-1,2,4-triazol-3-one], the IC50 in assay [1] is 1.3 nM; in assay [2], 1900 nM; in assay [3] it was 4700 nM; in assay [4], over 100000 nM.

With `NC/C(=C\F)Cn1ncn(Cc2ccc(-c3ccc(-c4noc(=O)[nH]4)cc3)s2)c1=O` [Example 144, 3-{4-[5-({1-[(2E)-2-(aminomethyl)-3-fluoroprop-2-en-1-yl]-5-oxo-1,5-dihydro-4H-1,2,4-triazol-4-yl}methyl)thiophen-2-yl]phenyl}-1,2,4-oxadiazol-5(4H)-one], the IC50 is 4.6 nM in assay [1], 13000 nM in assay [2], 7400 nM in assay [3] and over 100000 nM in assay [4].

Consider `NC/C(=C\F)Cn1ncn(CCc2ccc(-c3ccc(C(F)(F)F)nc3)s2)c1=O` [Example 217, 2-[(2E)-2-(aminomethyl)-3-fluoroprop-2-en-1-yl]-4-(2-{5-[6-(trifluoromethyl)pyridin-3-yl]thiophen-2-yl}ethyl)-2,4-dihydro-3H-1,2,4-triazol-3-one], for which the half-maximal inhibitory concentration (IC50) in assay [1] was 0.7 nM; in assay [2] it was 6900 nM; in assay [3], 61 nM; in assay [4], over 100000 nM.

As to `CS(=O)(=O)c1ccc(-c2ccc3sc(Cn4cnn(C/C(=C/F)CN)c4=O)cc3c2)cc1` [Example 208, 2-[(2E)-2-(aminomethyl)-3-fluoroprop-2-en-1-yl]-4-({5-[4-(methylsulfonyl)phenyl]-1-benzothiophen-2-yl}methyl)-2,4-dihydro-3H-1,2,4-triazol-3-one], the IC50 was 1.2 nM in assay [1], 26000 nM in assay [2], 780 nM in assay [3] and over 100000 nM in assay [4].

With `CN1CCC(n2cc(-c3ccc(Cn4cnn(C/C(=C/F)CN)c4=O)s3)cn2)CC1` [Example 159, 2-[(2E)-2-(aminomethyl)-3-fluoroprop-2-en-1-yl]-4-({5-[1-(1-methylpiperidin-4-yl)-1H-pyrazol-4-yl]thiophen-2-yl}methyl)-2,4-dihydro-3H-1,2,4-triazol-3-one], the half-maximal inhibitory concentration (IC50) in assay [1] was 4.3 nM; in assay [2], over 100000 nM; in assay [3], 1200 nM; in assay [4], over 100000 nM.

As to `NC/C(=C\F)Cn1ncn(Cc2ccc(-c3cc4c(cc3F)NC(=O)CC4)s2)c1=O` [Example 146, 6-[5-({1-[(2E)-2-(aminomethyl)-3-fluoroprop-2-en-1-yl]-5-oxo-1,5-dihydro-4H-1,2,4-triazol-4-yl}methyl)thiophen-2-yl]-7-fluoro-3,4-dihydroquinolin-2(1H)-one], the half-maximal inhibitory concentration (IC50) in assay [1] is 0.4 nM; in assay [2] it was 3900 nM; in assay [3], 1300 nM; in assay [4] it was over 100000 nM.

As to `NC/C(=C\F)Cn1ncn(Cc2ccc(-c3cc4c(cc3F)OCC(=O)N4)s2)c1=O` [Example 93, 6-[5-(1-[(2E)-2-(aminomethyl)-3-fluoroprop-2-en-1-yl]-5-oxo-1,5-dihydro-4H-1,2,4-triazol-4-ylmethyl)thiophen-2-yl]-7-fluoro-2H-1,4-benzoxazin-3(4H)-one hydrochloride], the half-inhibitory concentration (IC50) in assay [1] was determined as 0.4 nM; in assay [2], 1100 nM; in assay [3] it was 230 nM; in assay [4], 54000 nM.

As to `NC/C(=C\F)Cn1ncn(Cc2ccc(/C=C/c3ccc(F)cc3)s2)c1=O` [Example 117, 2-[(2E)-2-(aminomethyl)-3-fluoroprop-2-en-1-yl]-4-(5-[(E)-2-(4-fluorophenyl)ethenyl]thiophen-2-ylmethyl)-2,4-dihydro-3H-1,2,4-triazol-3-one hydrochloride], the half-maximal inhibitory concentration (IC50) in assay [1] was 1.3 nM; in assay [2], 270 nM; in assay [3], 1200 nM; in assay [4], 93000 nM.

Broadly, the IC50 is the concentration that gives 50% inhibition.
